Assay results as given in PubChem BioAssay (NCI).
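Where inhibition never reached the appropriate level, the endpoint shown equals the highest concentration tested. Otherwise, values were interpolated linearly from a five-concentration, 48-hour dose response in 96-well plates. Here, GI50 denotes the concentration required for 50% inhibition of growth. Definition used: TGI = concentration required for complete inhibition of growth.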

Key:
Test in all cases: inhibition of tumour cell growth, NCI panel, 48 h
A498 renal = tested on: A498 renal
ACHN renal = tested on: ACHN renal
LOX IMVI melanoma = tested on: LOX IMVI melanoma
NCI-H522 lung = tested on: NCI-H522 lung
SK-MEL-2 melanoma = tested on: SK-MEL-2 melanoma
OVCAR-4 ovarian = tested on: OVCAR-4 ovarian
SK-MEL-28 melanoma = tested on: SK-MEL-28 melanoma
SK-OV-3 ovarian = tested on: SK-OV-3 ovarian
SN12C renal = tested on: SN12C renal
DU-145 prostate = tested on: DU-145 prostate

SMILES | GI50 (A498 renal) | TGI (A498 renal) | GI50 (ACHN renal) | TGI (ACHN renal) | GI50 (LOX IMVI melanoma) | TGI (LOX IMVI melanoma) | GI50 (NCI-H522 lung) | TGI (NCI-H522 lung) | GI50 (SK-MEL-2 melanoma) | TGI (SK-MEL-2 melanoma) | GI50 (OVCAR-4 ovarian) | TGI (OVCAR-4 ovarian) | GI50 (SK-MEL-28 melanoma) | TGI (SK-MEL-28 melanoma) | GI50 (SK-OV-3 ovarian) | TGI (SK-OV-3 ovarian) | GI50 (SN12C renal) | TGI (SN12C renal) | TGI (DU-145 prostate) | GI50 (DU-145 prostate)
Cc1cn2c(/C=C3/C(=O)Nc4ccccc43)c(-c3ccc(Cl)cc3)nc2s1 | 10.6 µM | 23.6 µM | 2.48 µM | 8.52 µM | 5.84 µM | 12 µM | 9.01 µM | 19.5 µM | 30.8 µM | > 50 µM | – | – | – | – | – | – | – | – | – | –
CC(=O)OCC1OC([S-])C(OC(C)=O)C(OC(C)=O)C1OC(C)=O.CC[PH+](CC)CC.CC[PH+](CC)CC.[Au].[Au] (centres undefined) | – | – | 1.01 µM | 2.38 µM | 0.142 µM | 0.317 µM | – | – | 0.187 µM | 0.49 µM | 0.506 µM | 1.88 µM | 0.167 µM | 0.791 µM | 1.68 µM | 3.05 µM | 0.567 µM | 1.78 µM | – | –
CSC1(CC(=O)N(C)C)C(=O)Nc2ccccc21 (centres undefined) | – | > 100 µM | – | > 100 µM | – | > 100 µM | – | – | – | > 100 µM | – | > 100 µM | – | > 100 µM | – | > 100 µM | – | – | > 100 µM | –
Cc1c(C2Nc3ccccc3C2C)[nH]c2ccccc12 (centres undefined) | 10.7 µM | 23.1 µM | 10.1 µM | 23.1 µM | – | – | 10.8 µM | 26.5 µM | – | – | 6.17 µM | 21.6 µM | 12 µM | 26.2 µM | 13.1 µM | 29.9 µM | 11.4 µM | 24.1 µM | 38.7 µM | 14.5 µM
CCOC(=O)c1[nH]c(COC(C)=O)c(CCCOC(C)=O)c1CCCOC(C)=O | – | > 100 µM | – | > 100 µM | – | > 100 µM | – | 52.5 µM | – | > 100 µM | – | > 100 µM | – | > 100 µM | – | > 100 µM | – | > 100 µM | – | –
CCOC(=O)C1N(S(=O)(=O)c2ccc(C)cc2)CCC12C(c1ccc(OC)cc1)NC1CCCCC12 (centres undefined) | – | > 100 µM | – | > 100 µM | – | > 100 µM | – | > 100 µM | – | – | – | > 100 µM | – | > 100 µM | – | > 100 µM | – | > 100 µM | – | –
CCOC(=O)[C@H](CCCNC(=O)OC(C)(C)C)NCc1ccc(OC)c(OC)c1 | – | > 100 µM | – | > 100 µM | – | > 100 µM | – | > 100 µM | – | > 100 µM | – | > 100 µM | – | > 100 µM | – | > 100 µM | – | > 100 µM | – | –
CC(=O)Oc1ccccc1C(=O)N=C1[Se]CCCN1C(=O)c1ccccc1OC(C)=O | – | – | 2.3 µM | 4.79 µM | 1.7 µM | 4.37 µM | 1.59 µM | 3.42 µM | 2.38 µM | 5.09 µM | 1.93 µM | 5.57 µM | 2.36 µM | 5.74 µM | 3.4 µM | 6.16 µM | 4.12 µM | 24.7 µM | 3.26 µM | 1.82 µM
O=C(CCC(=O)Nc1cccc(Cl)c1)CC(=O)c1ccc(Cl)cc1 | – | – | – | > 100 µM | – | > 100 µM | – | > 100 µM | – | > 100 µM | – | > 100 µM | – | > 100 µM | – | > 100 µM | – | > 100 µM | – | –
NC1CCCC[C@H]1N.N[C@@H]1CCCC[C@@H]1N.O=C(P(=O)([O-])[O-])P(=O)([O-])[O-].[Pt+4].[Pt+4] | > 100 µM | > 100 µM | 82.2 µM | > 100 µM | > 100 µM | > 100 µM | 11.9 µM | 47.4 µM | > 100 µM | > 100 µM | > 100 µM | > 100 µM | > 100 µM | > 100 µM | > 100 µM | > 100 µM | > 100 µM | > 100 µM | – | –
COC(COC(=O)N1CCN(C=O)CC1)C1=C(N2CC2)C(=O)C(C)=C(N2CC2)C1=O (centres undefined) | – | 4.02 µM | – | 0.424 µM | – | 0.613 µM | – | 0.26 µM | – | – | – | 2.13 µM | – | 3.33 µM | – | 2.11 µM | – | 1.14 µM | 4.01 µM | –
CC(C)(C)N1CC2(CCCCC2)C1=O | – | > 100 µM | – | > 100 µM | – | > 100 µM | – | > 100 µM | – | > 100 µM | – | > 100 µM | – | > 100 µM | – | > 100 µM | – | > 100 µM | – | –
O=C(/C=C/c1ccccc1)/C=C/c1ccccc1 | – | > 100 µM | – | 38.2 µM | – | 31.7 µM | – | – | – | > 100 µM | – | 53.2 µM | – | 42.9 µM | – | > 100 µM | – | 42.1 µM | – | –
O=C1c2ccn(CCCCNC(CO)(CO)CO)c2C(=O)c2c1c(O)c1ccccc1c2O | 16.5 µM | 46.8 µM | 0.56 µM | 1.89 µM | – | – | 4.38 µM | > 100 µM | 31.6 µM | > 100 µM | 2.35 µM | > 22.2 µM | 6.44 µM | > 43.6 µM | 7.81 µM | > 47.8 µM | 4.39 µM | 8.83 µM | 4.69 µM | 1.89 µM
O/N=C\c1c(O)ccc2ccccc12 | – | > 100 µM | – | 70.1 µM | – | > 100 µM | – | – | – | – | – | – | – | > 100 µM | – | > 100 µM | – | > 100 µM | – | –
O=C(CSc1nnc(-c2ccccc2NC(=O)C(F)(F)F)c(=O)[nH]1)NC(=O)Nc1ccccc1 | – | – | – | – | – | > 100 µM | – | > 100 µM | – | > 100 µM | – | – | – | > 100 µM | – | > 100 µM | – | > 100 µM | – | –
Cc1ccc(N(CSc2ccc(Cl)cc2)CSc2ccc(Cl)cc2)cc1 | – | – | 2.11 µM | 15.7 µM | 0.189 µM | 0.694 µM | 1.49 µM | 3.18 µM | 3.76 µM | 25 µM | 2.78 µM | 31.4 µM | 1.64 µM | 4.23 µM | 3.29 µM | 19.3 µM | 0.501 µM | 14.5 µM | 23 µM | 2.57 µM
CN(C)Cc1c[nH]c2c1C(=O)c1c(c(O)c3ccccc3c1O)C2=O | 12.1 µM | 25.3 µM | 7.08 µM | 20.1 µM | 6.32 µM | 19.5 µM | 12.6 µM | 35.4 µM | – | – | 20.1 µM | 42.6 µM | 27.4 µM | 58 µM | 52 µM | > 100 µM | 5.62 µM | 19.1 µM | 11.5 µM | 0.923 µM
N#CC(/C(=N/NC(=O)C(=O)NN)C(=O)NC12CC3CC(CC(C3)C1)C2)c1ccccc1 (centres undefined) | – | > 100 µM | – | > 100 µM | – | > 100 µM | – | > 100 µM | – | > 100 µM | – | > 100 µM | – | > 100 µM | – | > 100 µM | – | > 100 µM | – | –
